Reference: patent US11058690B2, “Use of cytochrome bc1 complex inhibitor in preparing pharmaceutical composition” (BEIJING WEILANZHIYUAN MEDICAL TECHNOLOGY CO., LTD., priority 2017, dated 2021)

Tested on: MLC20
Assay: phosphorylation of MLC20 in rat uterine smooth muscle cells induced by PGF2α (Western blotting)
Assay type: cell-based
Conditions: 5 μM and 10 μM pretreatment; PGF2α stimulation 5 minutes
Source text: A tissue mass culture method was adopted: rats treated with diethylstilbestrol were sacrificed through dislocation and soak in 75% alcohol for disinfection, open the abdominal cavity under an aseptic condition, separate the uterus, transfer it to a plate, cut open the uterus to remove the outer membrane of the uterus, gently scrape off the inner membrane of the uterus with a blade, gently peel off the outer membrane of the uterus with a tweezer, cut the intact smooth muscle into small pieces of less than 1×1×1 mm^3, uniformly stick them to the wall of a culture bottle, add a culture solution with the bottom up, gently turn over after culture at 5% CO2 and 37° C. for 3-4 hours, and soak in an RPMI-1640 culture solution (containing 20% calf bovine serum) for about one week until the cells can be connected into pieces to form monolayer cultured cells. At this time, the culture solution in the bottle was poured out, the tissue masses in the bottle were washed twice with PBS and removed, and a proper amount of 0.25% trypsin was added. Calf bovine serum was added to stop the reaction when most cells contracted and became round under microscope, the liquid was poured out, and the cells were washed twice with PBS and added with a proper amount of RPMI-1640, and the eluted cells were gently washed with a pipette to prepare a cell suspension for later use. […]

CO/C=C(/C(=O)OC)c1ccccc1COc1cc(C(F)(F)F)nc(OC(C)C)n1 [FAPM, fluacrypyrim]
phosphorylation of MLC20 (gray analysis, words): significantly inhibited
